The assay deals with T1, PARP-1 enzyme (Homo sapiens, UniProt P09874).
T1 construct: made in house
T1 sequence (P09874 whole entry): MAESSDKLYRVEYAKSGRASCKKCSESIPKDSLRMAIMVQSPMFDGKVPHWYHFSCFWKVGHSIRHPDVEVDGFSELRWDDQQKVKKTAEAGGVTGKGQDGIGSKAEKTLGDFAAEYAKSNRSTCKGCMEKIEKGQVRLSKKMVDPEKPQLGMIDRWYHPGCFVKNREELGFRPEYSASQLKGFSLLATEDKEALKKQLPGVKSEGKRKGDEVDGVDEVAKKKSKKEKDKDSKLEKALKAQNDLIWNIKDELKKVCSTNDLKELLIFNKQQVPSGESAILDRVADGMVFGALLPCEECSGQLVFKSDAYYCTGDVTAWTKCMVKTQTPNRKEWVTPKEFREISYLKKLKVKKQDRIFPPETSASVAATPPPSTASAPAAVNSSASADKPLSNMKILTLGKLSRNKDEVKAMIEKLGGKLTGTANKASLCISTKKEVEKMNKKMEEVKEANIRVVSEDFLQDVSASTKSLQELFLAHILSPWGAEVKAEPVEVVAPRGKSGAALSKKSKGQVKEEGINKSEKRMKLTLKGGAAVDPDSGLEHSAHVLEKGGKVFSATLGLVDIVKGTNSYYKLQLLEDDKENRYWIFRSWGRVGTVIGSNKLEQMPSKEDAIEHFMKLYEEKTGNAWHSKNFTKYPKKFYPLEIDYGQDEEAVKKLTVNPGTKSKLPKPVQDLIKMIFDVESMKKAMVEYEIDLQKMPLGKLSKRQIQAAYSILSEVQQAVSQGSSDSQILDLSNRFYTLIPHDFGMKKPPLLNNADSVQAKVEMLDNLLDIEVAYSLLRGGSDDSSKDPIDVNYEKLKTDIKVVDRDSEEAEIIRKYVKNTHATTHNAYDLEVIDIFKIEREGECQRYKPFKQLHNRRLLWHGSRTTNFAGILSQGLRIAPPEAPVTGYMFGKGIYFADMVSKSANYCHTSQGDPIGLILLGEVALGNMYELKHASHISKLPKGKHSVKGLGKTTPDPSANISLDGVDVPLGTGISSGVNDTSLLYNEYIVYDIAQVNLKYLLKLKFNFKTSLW
Briefly: in vitro Scintillation Proximity Assay (SPA) for PARP-1 inhibitory activity. The class given is biochemical. As to conditions: [3H]-NAD+, biotinylated histones, nicked DNA; dose-response 10^-5 M to 10^-8 M; read-out: in vitro SPA assay PARP-1 pIC50 (converted). How it is done: In vitro Scintillation Proximity Assay (SPA) for PARP-1 Inhibitory Activity
Compounds of the present invention were tested in an in vitro assay based on SPA technology (proprietary to Amersham Pharmacia Biotech).
In principle, the assay relies upon the well established SPA technology for the detection of poly(ADP-ribosylation of biotinylated target proteins, i.e histones. This ribosylation is induced using nicked DNA activated PARP-1 enzyme and [^3H]-nicotinamide adenine dinucleotide ([^3H]-NAD^+) as ADP-ribosyl donor.
As inducer of PARP-1 enzyme activity, nicked DNA was prepared. For this, 25 mg of DNA (supplier: Sigma) was dissolved in 25 ml DNAse buffer (10 mM Tris-HCl, pH 7.4; 0.5 mg/ml Bovine Serum Albumine (BSA); 5 mM MgCl2.6H2O and 1 mM KCl) to which 50 Al DNAse solution (1 mg/ml in 0.15 M NaCl) was added. After an incubation of 90 min. at 37° C., the reaction was terminated by adding 1.45 g NaCl, followed by a further incubation at 58° C. for 15 min. The reaction mixture was cooled on ice and dialysed at 4° C. for respectively 1.5 and 2 hours against 1.51 of 0.2 M KCl, and twice against 1.51 of 0.01 M KCl for 1.5 and 2 h respectively. The mixture was aliquoted and stored at −20° C. Histones (1 mg/ml, type II-A, supplier: Sigma) were biotinylated using the biotinylation kit of Amersham and stored aliquoted at −20° C. A stock solution of 100 mg/ml SPA poly(vinyl toluene) (PVT) beads (supplier: Amersham) was made in PBS. A stock solution of [^3H]-NAD^+ was made by adding 120 μl of [^3H]-NAD^+ (0.1 mCi/ml, supplier: NEN) to 6 ml incubation buffer (50 mM Tris/HCl, pH 8; 0.2 mM DTT; 4 mM MgCl2). A solution of 4 mM NAD^+ (supplier: Roche) was made in incubation buffer (from a 100 mM stock solution in water stored at −20° C.). The PARP-1 enzyme was produced using art known techniques, i.e. cloning and expression of the protein starting from human liver cDNA. Information concerning the used protein sequence of the PARP-1 enzyme including literature references can be found in the Swiss-Prot database under primary accession number P09874. Biotinylated histones and PVT-SPA beads were mixed and pre-incubated for 30 min. at room temperature. PARP-1 enzyme (concentration was lot dependent) was mixed with the nicked DNA and the mixture was pre-incubated for 30 min. at 4° C. Equal parts of this histones/PVT-SPA beads solution and PARP-1 enzyme/DNA solution were mixed and 75 μl of this mixture together with 1 μl of compound in DMSO and 25 μl of [^3H]-NAD^+ was added per well into a 96-well microtiterplate. The final concentrations in the incubation mixture were 2 μg/ml for the biotinylated histones, 2 mg/ml for the PVT-SPA beads, 2 μg/ml for the nicked DNA and between 5-10 μg/ml for the PARP-1 enzyme. After incubation of the mixture for 15 min. at room temperature, the reaction was terminated by adding 100 μl of 4 mM NAD^+ in incubation buffer (final concentration 2 mM) and plates were mixed.
The beads were allowed to sediment for at least 15 min. and plates transferred to a TopCountNXT™ (Packard) for scintillation counting, values were expressed as counts per minute (cpm). For each experiment, controls (containing PARP-1 enzyme and DMSO without compound), a blank incubation (containing DMSO but no PARP-1 enzyme or compound) and samples (containing PARP-1 enzyme and compound dissolved in DMSO) were run in parallel. All compounds tested were dissolved and eventually further diluted in DMSO. […] In each test, the blank value was subtracted from both the control and the sample values. The control sample represented maximal PARP-1 enzyme activity. For each sample, the amount of cpm was expressed as a percentage of the mean cpm value of the controls. When appropriate, IC50-values (concentration of the drug, needed to reduce the PARP-1 enzyme activity to 50% of the control) were computed using linear interpolation between the experimental points just above and below the 50% level. […]
For orientation: In a scintillation proximity assay essentially only radioactivity close to the scintillant gives light.
In the case of `O=c1[nH]nc(N[C@@H]2C[C@H]3CC[C@@H](C2)N3CCCC(c2ccc(F)cc2)c2ccc(F)cc2)c2ccccc12` [Compound 3], the IC50 was 430 nM. Take `Cc1nc2sccn2c(=O)c1CCN1CCN(c2nnc(C)c3ccccc23)CC1` [Compound 73]: the IC50 is 1900 nM. On to `O=c1[nH]nc(NC2CCN(CCCCOc3ccccc3)CC2)c2ccccc12` [Compound 46], for which the IC50 was 843 nM. In the case of `CN(c1nc2ccccc2s1)C1CCN(c2nnc(Cl)c3ccccc23)CC1` [Compound 61] it was 1290 nM; in that of `CCOC(=O)N1CCCC(Nc2n[nH]c(=O)c3ccccc23)CC1` (centres unmarked) [Compound 50], 2510 nM; in that of `O=c1[nH]nc(NCC2CCCN(CCCC(c3ccc(F)cc3)c3ccc(F)cc3)C2)c2ccccc12` (centres unmarked) [Compound 49], 3820 nM.

In the case of `O=c1[nH]nc(C2CCN(CCCCOc3ccccc3)CC2)c2ccccc12` [Compound 68], the IC50 is 274 nM. Turning to `O=c1[nH]nc(C2CCN(c3ncccn3)CC2)c2ccccc12` [Compound 69], the IC50 was 2150 nM. In the case of `Cc1nc2ccccn2c(=O)c1CCN1CCN(c2nnc(C)c3ccccc23)CC1` [Compound 72] it was 8970 nM. With `O=c1[nH]nc(NC2CCCN(Cc3ccccc3)C2)c2ccccc12` (centres unmarked) [Compound 53], the IC50 is 1070 nM. For `O=c1[nH]nc(C2CCN(C/C=C/c3ccccc3)CC2)c2ccccc12` [Compound 66] the value was 767 nM.

For `CCOC(=O)N1CCC(Nc2n[nH]c(=O)c3ccccc23)C1` (centres unmarked) [Compound 48], the IC50 is 3070 nM. For the compound `O=c1[nH]nc(C2CCN(CCCC(c3ccc(F)cc3)c3ccc(F)cc3)CC2)c2ccccc12` [Compound 67], the IC50 is 303 nM. For `Clc1nnc(NC2CCN(CCCCOc3ccccc3)CC2)c2ccccc12` [Compound 59] the value was 3300 nM.

On to `O=c1[nH]nc(C2CCNCC2)c2ccccc12` [Compound 4], for which the IC50 was 251 nM. On to `Fc1ccc(C(CCCN2CCN(c3nnc(Cl)c4ccccc34)CC2)c2ccc(F)cc2)cc1` [Compound 57], for which the IC50 was 1970 nM.

In the case of `CCOC(=O)N1CCN(c2nnc(Cl)c3ccccc23)CC1` [Compound 58], the IC50 is 10000 nM. For the compound `CCOC(=O)N1CCC(Nc2n[nH]c(=O)c3ccccc23)CC1` [Compound 56], the IC50 was 5640 nM. Regarding `CCOC(=O)N1[C@@H]2CC[C@H]1C[C@H](Nc1n[nH]c(=O)c3ccccc13)C2` [Compound 11], the IC50 is 86.7 nM. With `O=c1[nH]nc(NC2CCCN(CCCC(c3ccc(F)cc3)c3ccc(F)cc3)CC2)c2ccccc12` (centres unmarked) [Compound 30], the IC50 is 442 nM. As to `O=c1[nH]nc(C2CCN(Cc3ccccc3)CC2)c2ccccc12` [Compound 1], the IC50 is 284 nM. For the compound `O=c1[nH]nc(C2CCN(CCCOc3ccc(F)cc3)CC2)c2ccccc12` [Compound 13], the IC50 was 75.5 nM.

Take `Cc1nnc(N2CCN(CCn3c(=O)[nH]c4ccccc4c3=O)CC2)c2ccccc12` [Compound 70]: the IC50 is 3440 nM. For `O=c1[nH]nc(NCC2CCCN(Cc3ccccc3)C2)c2ccccc12` (centres unmarked) [Compound 44] the value was 1120 nM; for `Cc1nc2scc(C)n2c(=O)c1CCN1CCN(c2nnc(C)c3ccccc23)CC1` [Compound 74], 3210 nM. For `O=c1[nH]nc(NC2CCN(C[C@@H](O)[C@@H]3CCc4ccccc4O3)CC2)c2ccccc12` (relative stereo) [Compound 27] the value was 857 nM. Consider `O=c1[nH]nc(NC2CCN(C/C=C/c3ccccc3)CC2)c2ccccc12` [Compound 65], for which the IC50 is 851 nM.

In the case of `CCOC(=O)N1[C@@H]2CC[C@H]1C[C@H](Nc1nnc(Cl)c3ccccc13)C2` [Compound 24], the IC50 is 973 nM. In the case of `COc1ccc(CCN2CCC(Nc3n[nH]c(=O)c4ccccc34)CC2)cc1` [Compound 63] it was 684 nM; in that of `Cc1nc2n(c(=O)c1CCN1CCN(c3nnc(C)c4ccccc34)CC1)CCCS2` [Compound 76], 3630 nM; in that of `O=c1[nH]nc(N2CCC(c3cccc(C(F)(F)F)c3)C2)c2ccccc12` (centres unmarked) [Compound 55], 1650 nM.

For `O=c1[nH]nc(NC2CCCNCC2)c2ccccc12` (centres unmarked) [Compound 34], the IC50 is 120 nM.

On to `Cc1nc2n(c(=O)c1CCN1CCN(c3nnc(C)c4ccccc34)CC1)CCS2` [Compound 75], for which the IC50 is 4240 nM. Take `Clc1nnc(NC2CCN(Cc3ccccc3)C2)c2ccccc12` (centres unmarked) [Compound 12]: the IC50 is 1140 nM. For `O=c1[nH]nc(N[C@@H]2C[C@H]3CC[C@@H](C2)N3)c2ccccc12` [Compound 15], the IC50 was 139 nM. For the compound `O=c1[nH]nc(NC2CCN(Cc3ccccc3)C2)c2ccccc12` (centres unmarked) [Compound 51], the IC50 was 432 nM. In the case of `Cc1nnc(N2CCN(CCn3c(=O)[nH]c4ccccc43)CC2)c2ccccc12` [Compound 71] it was 7410 nM; in that of `Cc1nnc(N2CCN(CCCC(c3ccc(F)cc3)c3ccc(F)cc3)CC2)c2ccccc12` [Compound 29], 1780 nM. In the case of `Clc1nnc(N2CCN(c3ccccc3)CC2)c2ccccc12` [Compound 77] it was 1320 nM. In the case of `CCOC(=O)N1CCC(c2n[nH]c(=O)c3ccccc23)CC1` [Compound 25] it was 2990 nM; in that of `O=c1[nH]nc(N2CCN(CCCC(c3ccc(F)cc3)c3ccc(F)cc3)CC2)c2ccccc12` [Compound 52], 435 nM.

Source of the values: patent US7803795B2, “Phthalazine derivatives as parp inhibitors” (Janssen Pharmaceutica N.V., priority 2004, dated 2010).
